In brackets after ≈: the same amount, converted by molar mass.
Legend:
[1] = test system: Plasmodium falciparum; assay: Antimalarial activity against Plasmodium falciparum in po dosed HM-IL2R gamma null mouse assessed as reduction in parasitemia administered once a day for 4 days; assay type: functional; conditions: 96 h
[2] = test system: Plasmodium falciparum; assay: Antimalarial activity against Plasmodium falciparum infected in A-positive human erythrocytes assessed as [3H]-hypoxanthine uptake after 24 hrs by liquid scintillation counter; assay type: functional, organism-based
[3] = Chromatographic hydrophobicity index of the compound at pH 2 by rapid gradient HPLC analysis; assay type: physicochemical
[4] = Chromatographic hydrophobicity index of the compound at pH 7.4 by rapid gradient HPLC analysis; assay type: physicochemical
[5] = Chromatographic hydrophobicity index of the compound at pH 10.5 by rapid gradient HPLC analysis; assay type: physicochemical
[6] = Partition coefficient, log P of the compound; assay type: physicochemical; conditions: octanol/water
[7] = Dissociation constant, pKa of the compound; assay type: physicochemical
[8] = Solubility of the compound in simulated gastric fluid at pH 1.2; assay type: physicochemical; conditions: simulated gi fluid
[9] = Solubility of the compound in fed state simulated intestinal fluid at pH 5.0; assay type: physicochemical
[10] = Solubility of the compound in fasted state simulated intestinal fluid at pH 6.8; assay type: physicochemical
[11] = Solubility of the compound in PBS at pH 7.4; assay type: physicochemical
[12] = test system: Mus musculus; assay: Cmax in CD1 mouse at 10 mg/kg, po; assay type: ADME, organism-based; parameters: dose 10 mg/kg, route oral; conditions: in vivo
[13] = Oral bioavailability in CD1 mouse at 10 mg/kg; assay type: ADME, organism-based; conditions: in vivo
[14] = Volume of distribution in CD1 mouse at 0.2 mg/kg, iv; assay type: ADME, organism-based; parameters: dose 0.2 mg/kg, route intravenous; conditions: in vivo
[15] = Clearance in CD1 mouse at 0.2 mg/kg, iv; assay type: ADME, organism-based; parameters: dose 0.2 mg/kg, route intravenous; conditions: in vivo
[16] = Half life in CD1 mouse at 0.2 mg/kg, iv; assay type: ADME, organism-based; parameters: dose 0.2 mg/kg, route intravenous; conditions: in vivo
[17] = test system: Canis familiaris; assay: Cmax in Beagle dog at 2 mg/kg, po; assay type: ADME, organism-based, Canis lupus familiaris; parameters: dose 2 mg/kg, route oral; conditions: in vivo
[18] = Oral bioavailability in Beagle dog at 2 mg/kg; assay type: ADME, organism-based, Canis lupus familiaris; conditions: in vivo
[19] = Volume of distribution in Beagle dog at 0.05 mg/kg, iv; assay type: ADME, organism-based, Canis lupus familiaris; parameters: dose 0.05 mg/kg, route intravenous; conditions: in vivo
[20] = Clearance in Beagle dog at 0.05 mg/kg, iv; assay type: ADME, organism-based, Canis lupus familiaris; parameters: dose 0.05 mg/kg, route intravenous; conditions: in vivo
[21] = Half life in Beagle dog at 0.05 mg/kg, iv; assay type: ADME, organism-based, Canis lupus familiaris; parameters: dose 0.05 mg/kg, route intravenous; conditions: in vivo

Which results are given for Cc1[nH]c(CO)c(-c2ccc(Oc3ccc(OC(F)(F)F)cc3)cc2)c(=O)c1Cl?
ED50 [1]: 0.6 mg/kg; IC50 [2]: 2 nM; CHI [3]: 2.43; CHI [4]: 2.42; CHI [5]: 2.2; logP [6]: 4.4; pKa [7]: 9.73; solubility [8]: 372 µg/mL (≈ 874 µM); solubility [9]: 2340 µg/mL (≈ 5500 µM); solubility [10]: 690 µg/mL (≈ 1620 µM); solubility [11]: < 100 µg/mL; Cmax [12]: 1100 ng/mL; bioavailability [13]: 50%; Vd [14]: 1 L/kg; clearance [15]: 3 mL/min/kg; half-life [16]: 3.8 h; Cmax [17]: 300 ng/mL; bioavailability [18]: 16%; Vd [19]: 2.8 L/kg; clearance [20]: 0.8 mL/min/kg; half-life [21]: 42 h

For Cc1[nH]c(CN(C)C)c(Cl)c(=O)c1-c1ccc(Oc2ccc(OC(F)(F)F)cc2)cc1, which IC50 [2] is on record?
Its IC50 is greater than 250 nM.

With Cc1[nH]c(CO)c(Cl)c(=O)c1-c1ccc(Oc2ccc(OC(F)(F)F)cc2)cc1 as the compound, how does the IC50 [2] read?
The IC50 was 130 nM.

With Cc1[nH]c(CO)c(Cl)c(=O)c1-c1ccc(Oc2cccc(C(F)(F)F)c2)cc1 as the compound, how does the IC50 [2] read?
The IC50 was 120 nM.

Which IC50 [2] does the source give for Cc1[nH]c(CN2CCCC2)c(Cl)c(=O)c1-c1ccc(Oc2ccc(OC(F)(F)F)cc2)cc1 here?
Its IC50 is greater than 250 nM.

With Cc1[nH]c(CN2CCOCC2)c(Cl)c(=O)c1-c1ccc(Oc2ccc(OC(F)(F)F)cc2)cc1 as the compound, how does the IC50 [2] read?
The IC50 was greater than 250 nM.

For Cc1[nH]c(CO)c(-c2ccc(Oc3cccc(C(F)(F)F)c3)cc2)c(=O)c1Cl, which IC50 [2] is on record?
Its IC50 is 3 nM.

For Cc1[nH]c(CN(C)C)c(-c2ccc(Oc3ccc(OC(F)(F)F)cc3)cc2)c(=O)c1Cl, which IC50 [2] is on record?
The IC50 was greater than 250 nM.

With Cc1[nH]c(CN2CCCC2)c(-c2ccc(Oc3ccc(OC(F)(F)F)cc3)cc2)c(=O)c1Cl as the compound, how does the IC50 [2] read?
The IC50 was greater than 250 nM.

With Cc1[nH]c(CN2CCOCC2)c(-c2ccc(Oc3ccc(OC(F)(F)F)cc3)cc2)c(=O)c1Cl as the compound, how does the IC50 [2] read?
Its IC50 is greater than 250 nM.

Which IC50 [2] does the source give for Cc1[nH]c(C(=O)O)c(-c2ccc(Oc3ccc(OC(F)(F)F)cc3)cc2)c(=O)c1Cl here?
The IC50 was greater than 250 nM.

For Cc1[nH]c(C(=O)N(C)C)c(-c2ccc(Oc3ccc(OC(F)(F)F)cc3)cc2)c(=O)c1Cl, which IC50 [2] is on record?
The IC50 was greater than 250 nM.

What does the source list for Cc1[nH]c(C)c(-c2ccc(Oc3ccc(OC(F)(F)F)cc3)cc2)c(=O)c1Cl?
IC50 [2]: 7 nM; CHI [3]: 2.75; CHI [4]: 2.79; CHI [5]: 2.77; logP [6]: 4.8; pKa [7]: 10.1; solubility [8]: 287 µg/mL (≈ 700 µM); solubility [9]: 700 µg/mL (≈ 1710 µM); solubility [10]: 500 µg/mL (≈ 1220 µM); solubility [11]: < 100 µg/mL; Cmax [12]: 900 ng/mL; bioavailability [13]: 20%; Vd [14]: 1.2 L/kg; clearance [15]: 0.6 mL/min/kg; half-life [16]: 24.1 h; Cmax [17]: 30 ng/mL; bioavailability [18]: 4.4%; Vd [19]: 2.9 L/kg; clearance [20]: 0.2 mL/min/kg; half-life [21]: 143 h

Which IC50 [2] does the source give for Cc1[nH]c(C)c(-c2ccc(Oc3cccc(C(F)(F)F)c3)cc2)c(=O)c1Cl here?
Its IC50 is 3 nM.

— ChEMBL document CHEMBL1821610 (Bioorg Med Chem Lett, 2011)
